Laboratory results published in US20260345619A1 (Principia Biopharma Inc., priority 2023, published 2026).

Experiment: Pre-bronchodilator FEV1 and percent predicted FEV1 by spirometry, change from baseline
Format: in vivo, human
Conditions: 400 mg BID
Procedure: Spirometry is a standard test to measure patients' lung function.
The primary endpoint was the proportion of patients with LOAC. The key secondary endpoint for the study was change in pre-bronchodilator FEV1 from baseline at EOT.
Reversibility is defined as an increase of the absolute FEV1 after administration of bronchodilator and is measured by spirometry as postbronchodilator increase in FEV1 in percent of the prebronchodilator FEV1. After spirometry for measuring prebronchodilator FEV1, participants were to receive 2-4 puffs of albuterol/salbutamol or levalbuterol/levosalbutamol from a primed MDI. The postbronchodilator spirometry may have been repeated several times within 30 minutes after administration of bronchodilator. Alternatively, and only if it was consistent with usual office practice (to be documented), reversibility may have been performed using inhalation of nebulized albuterol/salbutamol or levalbuterol/levosalbutamol.
Secondary endpoints included pre-bronchodilator FEV1 change from baseline at EOT, ACQ-5 score change from baseline, and AQLQ score change from baseline. Other secondary and exploratory endpoints are described in Table 2.

[1] = Week 12, baseline weight ≥90 kg
[2] = Week 12, smoking history Former
[3] = EOT (Week 12), all others, mITT
[4] = Week 2, before LOAC and OCS use, as observed, mITT
[5] = Week 2, observed/LOCF imputed, mITT
[6] = Week 2, on-site conventional spirometry as observed, mITT
[7] = Week 4, before LOAC and OCS use, as observed, mITT
[8] = Week 4, observed/LOCF imputed, mITT
[9] = Week 4, on-site conventional spirometry as observed, mITT
[10] = Week 6, before LOAC and OCS use, as observed, mITT
[11] = Week 6, observed/LOCF imputed, mITT
[12] = Week 6, on-site conventional spirometry as observed, mITT
[13] = Week 8, before LOAC and OCS use, as observed, mITT
[14] = Week 8, observed/LOCF imputed, mITT
[15] = Week 8, on-site conventional spirometry as observed, mITT
[16] = Week 10, before LOAC and OCS use, as observed, mITT
[17] = Week 10, observed/LOCF imputed, mITT
[18] = Week 10, on-site conventional spirometry as observed, mITT
[19] = Week 12 (EOT), MMRM supplementary analysis, mITT
[20] = Week 12, before LOAC and OCS use, as observed, mITT

With `CC(C)(C=C(C#N)C(=O)N1CCC[C@@H](n2nc(-c3ccc(Oc4ccccc4)cc3F)c3c(N)ncnc32)C1)N1CCN(C2COC2)CC1` (mixture of isomers) [rilzabrutinib, (R)-2-[3-[4-amino-3-(2-fluoro-4-phenoxy-phenyl)pyrazolo[3,4-d]pyrimidin-1-yl]piperidine-1-carbonyl]-4-methyl-4-[4-(oxetan-3-yl)piperazin-1-yl]pent-2-enenitrile] the “Pre-bronchodilator FEV1 change from baseline, LS Mean” value [1] was -0.25 L, the “Pre-bronchodilator FEV1 change from baseline, LS Mean Diff vs. placebo” value [1] was -0.37 L and the “Pre-bronchodilator FEV1 change from baseline, Mean” value [1] was -0.17 L. For the same compound, the “Pre-bronchodilator FEV1 change from baseline, LS Mean” value (Week 12, female) was 0.00 L, the “Pre-bronchodilator FEV1 change from baseline, LS Mean Diff vs. placebo” value (Week 12, female) was 0.04 L and the “Pre-bronchodilator FEV1 change from baseline, Mean” value (Week 12, female) was -0.01 L. For the same compound, the “Pre-bronchodilator FEV1 change from baseline, LS Mean” value (Week 12, male) was -0.23 L, the “Pre-bronchodilator FEV1 change from baseline, LS Mean Diff vs. placebo” value (Week 12, male) was -0.16 L and the “Pre-bronchodilator FEV1 change from baseline, Mean” value (Week 12, male) was -0.08 L. The “Pre-bronchodilator FEV1 change from baseline, LS Mean” value [2] was -0.57 L, the “Pre-bronchodilator FEV1 change from baseline, LS Mean Diff vs. placebo” value [2] was -0.21 L and the “Pre-bronchodilator FEV1 change from baseline, Mean” value [2] was -0.36 L. The “Pre-bronchodilator FEV1 change from baseline, LS Mean” value (Week 12, smoking history Never) was -0.05 L, the “Pre-bronchodilator FEV1 change from baseline, LS Mean Diff vs. placebo” value (Week 12, smoking history Never) was 0.03 L and the “Pre-bronchodilator FEV1 change from baseline, Mean” value (Week 12, smoking history Never) was 0.02 L. For the same compound, the “Difference vs. placebo, LS mean change in pre-bronchodilator FEV1 (L) at Week 12” value (95% CI −0.17, 0.19, p=0.9466) was 0.01 L, the “Change from baseline in pre-bronchodilator FEV1, LS Mean (SE)” value [3] was -0.05 L and the “Change from baseline in pre-bronchodilator FEV1, LS Mean Diff vs. placebo (95% CI)” value [3] was 0.03 L. For the same compound, the “Change from baseline in pre-bronchodilator FEV1, Mean (SD)” value (EOT (Week 12), all others, mITT, n=22) was -0.02 L, the “Change from baseline in pre-bronchodilator FEV1, Mean (SD)” value (EOT (Week 12), low EOS (<0.15) and low FeNO (<25), mITT, n=3) was -0.17 L and the “LS Mean change from baseline in pre-bronchodilator FEV1 (L) at Week 12” value (N=32, mITT) was −0.07 (0.08) L. For the same compound, the “Pre-bronchodilator FEV1, mean” value [4] was 2.20 L, the “Pre-bronchodilator FEV1, median” value [4] was 2.08 L and the “Pre-bronchodilator FEV1 change from baseline, Mean” value [4] was 0.08 L. For the same compound, the “Pre-bronchodilator FEV1 change from baseline, median” value [4] was 0.04 L, the “Pre-bronchodilator FEV1 percent change from baseline, mean” value [4] was 4.47% and the “Pre-bronchodilator FEV1 percent change from baseline, median” value [4] was 2.02%. For the same compound, the “Pre-bronchodilator FEV1, mean” value [5] was 2.20 L, the “Pre-bronchodilator FEV1, median” value [5] was 2.08 L and the “Pre-bronchodilator FEV1 change from baseline, LS Mean” value [5] was 0.06 L. For the same compound, the “Pre-bronchodilator FEV1 change from baseline, LS Mean Diff vs. placebo” value [5] was 0.00 L, the “Pre-bronchodilator FEV1 change from baseline, Mean” value [5] was 0.08 L and the “Pre-bronchodilator FEV1 change from baseline, median” value [5] was 0.04 L. For the same compound, the “Pre-bronchodilator FEV1, mean” value [6] was 2.20 L, the “Pre-bronchodilator FEV1, median” value [6] was 2.08 L and the “Pre-bronchodilator FEV1 change from baseline, Mean” value [6] was 0.08 L. For the same compound, the “Pre-bronchodilator FEV1 change from baseline, median” value [6] was 0.04 L, the “Pre-bronchodilator FEV1 percent change from baseline, mean” value [6] was 4.47% and the “Pre-bronchodilator FEV1 percent change from baseline, median” value [6] was 2.02%. For the same compound, the “Pre-bronchodilator FEV1, mean” value [7] was 2.05 L, the “Pre-bronchodilator FEV1, median” value [7] was 1.96 L and the “Pre-bronchodilator FEV1 change from baseline, Mean” value [7] was 0.07 L. The “Pre-bronchodilator FEV1 change from baseline, median” value [7] was 0.02 L, the “Pre-bronchodilator FEV1 percent change from baseline, mean” value [7] was 3.72% and the “Pre-bronchodilator FEV1 percent change from baseline, median” value [7] was 0.55%. For the same compound, the “Pre-bronchodilator FEV1, mean” value [8] was 2.07 L, the “Pre-bronchodilator FEV1, median” value [8] was 1.96 L and the “Pre-bronchodilator FEV1 change from baseline, LS Mean” value [8] was 0.08 L. The “Pre-bronchodilator FEV1 change from baseline, LS Mean Diff vs. placebo” value [8] was -0.01 L, the “Pre-bronchodilator FEV1 change from baseline, Mean” value [8] was 0.07 L and the “Pre-bronchodilator FEV1 change from baseline, median” value [8] was 0.02 L. For the same compound, the “Pre-bronchodilator FEV1, mean” value [9] was 2.05 L, the “Pre-bronchodilator FEV1, median” value [9] was 1.96 L and the “Pre-bronchodilator FEV1 change from baseline, Mean” value [9] was 0.07 L. For the same compound, the “Pre-bronchodilator FEV1 change from baseline, median” value [9] was 0.02 L, the “Pre-bronchodilator FEV1 percent change from baseline, mean” value [9] was 3.72% and the “Pre-bronchodilator FEV1 percent change from baseline, median” value [9] was 0.55%. The “Pre-bronchodilator FEV1, mean” value [10] was 2.24 L, the “Pre-bronchodilator FEV1, median” value [10] was 2.01 L and the “Pre-bronchodilator FEV1 change from baseline, Mean” value [10] was 0.09 L. For the same compound, the “Pre-bronchodilator FEV1 change from baseline, median” value [10] was 0.07 L, the “Pre-bronchodilator FEV1 percent change from baseline, mean” value [10] was 3.99% and the “Pre-bronchodilator FEV1 percent change from baseline, median” value [10] was 3.66%. For the same compound, the “Pre-bronchodilator FEV1, mean” value [11] was 2.24 L, the “Pre-bronchodilator FEV1, median” value [11] was 2.01 L and the “Pre-bronchodilator FEV1 change from baseline, LS Mean” value [11] was -0.03 L. The “Pre-bronchodilator FEV1 change from baseline, LS Mean Diff vs. placebo” value [11] was -0.03 L, the “Pre-bronchodilator FEV1 change from baseline, Mean” value [11] was 0.09 L and the “Pre-bronchodilator FEV1 change from baseline, median” value [11] was 0.07 L. For the same compound, the “Pre-bronchodilator FEV1, mean” value [12] was 2.24 L, the “Pre-bronchodilator FEV1, median” value [12] was 2.06 L and the “Pre-bronchodilator FEV1 change from baseline, Mean” value [12] was 0.10 L. The “Pre-bronchodilator FEV1 change from baseline, median” value [12] was 0.07 L, the “Pre-bronchodilator FEV1 percent change from baseline, mean” value [12] was 4.61% and the “Pre-bronchodilator FEV1 percent change from baseline, median” value [12] was 5.14%. For the same compound, the “Pre-bronchodilator FEV1, mean” value [13] was 2.10 L, the “Pre-bronchodilator FEV1, median” value [13] was 1.83 L and the “Pre-bronchodilator FEV1 change from baseline, Mean” value [13] was 0.08 L. For the same compound, the “Pre-bronchodilator FEV1 change from baseline, median” value [13] was 0.11 L, the “Pre-bronchodilator FEV1 percent change from baseline, mean” value [13] was 3.28% and the “Pre-bronchodilator FEV1 percent change from baseline, median” value [13] was 3.73%. For the same compound, the “Pre-bronchodilator FEV1, mean” value [14] was 2.09 L, the “Pre-bronchodilator FEV1, median” value [14] was 1.83 L and the “Pre-bronchodilator FEV1 change from baseline, LS Mean” value [14] was -0.00 L. For the same compound, the “Pre-bronchodilator FEV1 change from baseline, LS Mean Diff vs. placebo” value [14] was 0.02 L, the “Pre-bronchodilator FEV1 change from baseline, Mean” value [14] was 0.04 L and the “Pre-bronchodilator FEV1 change from baseline, median” value [14] was 0.05 L. For the same compound, the “Pre-bronchodilator FEV1, mean” value [15] was 2.08 L, the “Pre-bronchodilator FEV1, median” value [15] was 1.86 L and the “Pre-bronchodilator FEV1 change from baseline, Mean” value [15] was 0.08 L. The “Pre-bronchodilator FEV1 change from baseline, median” value [15] was 0.09 L, the “Pre-bronchodilator FEV1 percent change from baseline, mean” value [15] was 3.30% and the “Pre-bronchodilator FEV1 percent change from baseline, median” value [15] was 3.64%. The “Pre-bronchodilator FEV1, mean” value [16] was 2.29 L, the “Pre-bronchodilator FEV1, median” value [16] was 1.93 L and the “Pre-bronchodilator FEV1 change from baseline, Mean” value [16] was 0.21 L. For the same compound, the “Pre-bronchodilator FEV1 change from baseline, median” value [16] was 0.12 L, the “Pre-bronchodilator FEV1 percent change from baseline, mean” value [16] was 10.71% and the “Pre-bronchodilator FEV1 percent change from baseline, median” value [16] was 4.52%. For the same compound, the “Pre-bronchodilator FEV1, mean” value [17] was 2.24 L, the “Pre-bronchodilator FEV1, median” value [17] was 1.93 L and the “Pre-bronchodilator FEV1 change from baseline, LS Mean” value [17] was 0.02 L. For the same compound, the “Pre-bronchodilator FEV1 change from baseline, LS Mean Diff vs. placebo” value [17] was 0.06 L, the “Pre-bronchodilator FEV1 change from baseline, Mean” value [17] was 0.13 L and the “Pre-bronchodilator FEV1 change from baseline, median” value [17] was 0.09 L. For the same compound, the “Pre-bronchodilator FEV1, mean” value [18] was 2.29 L, the “Pre-bronchodilator FEV1, median” value [18] was 1.93 L and the “Pre-bronchodilator FEV1 change from baseline, Mean” value [18] was 0.21 L. The “Pre-bronchodilator FEV1 change from baseline, median” value [18] was 0.12 L, the “Pre-bronchodilator FEV1 percent change from baseline, mean” value [18] was 10.71% and the “Pre-bronchodilator FEV1 percent change from baseline, median” value [18] was 4.52%. The “Change from baseline in pre-bronchodilator FEV1, Mean” value [19] was -0.02 L, the “Change from baseline in pre-bronchodilator FEV1, Median” value [19] was -0.04 L and the “Pre-bronchodilator FEV1, Mean” value [19] was 2.01 L. The “Pre-bronchodilator FEV1, Median” value [19] was 1.88 L, the “Change from baseline in pre-bronchodilator FEV1, LS Mean” value (Week 12 (EOT), MMRM, mITT) was -0.01 L and the “Change from baseline in pre-bronchodilator FEV1, LS Mean diff vs. placebo” value (Week 12 (EOT), MMRM, mITT) was 0.00 L. For the same compound, the “Pre-bronchodilator FEV1, mean” value [20] was 2.01 L, the “Pre-bronchodilator FEV1, median” value [20] was 1.88 L and the “Pre-bronchodilator FEV1 change from baseline, Mean” value [20] was -0.02 L.
